The source of these data is patent US20080131920A1, “Ion flux in biological processes, and methods related thereto” (priority 2005, published 2008).

The test system of one data set is KCNK1. As to the kind of experiment: KCNK1 expression in the regeneration bud. Also noted: species or system Xenopus laevis. The settings on record: in vivo. An excerpt: We then sought to functionally link V-ATPase activity to gene expression in the regeneration bud. Existing markers include Notch pathway genes^2. […] Because of this, and because the V-ATPase is expressed so soon following amputation, we utilized an earlier marker that is normally expressed by 12 hpa: the K^+ channel KCNK1 (FIG. 14E,E′). In larvae in which V-ATPase activity was abrogated by concanamycin or a function-blocking anti-V-ATPase antibody, KCNK1 expression was absent (N=13, FIG. 14F,F′-G,G′). Thus, V-ATPase is upstream of some gene expression in the regeneration bud, including other ion transporters also specifically expressed during early stages of regeneration.
Larvae were fixed in MEMFA (Sive et al., 2000) and dehydrated in methanol. In situ hybridization was carried out according to standard protocols (Harland, 1991, Xenopus laevis: Practical uses in cell and molecular biology 36: 685-695). The ion transporter constructs used to generate probes for in situ hybridization (ISH) experiments were: Kcnk1 (TWIK-1, BC042262, Open Biosystems), V-ATPase 16 kDa subunit (BE025959, RZPD). Plasmids were used to generate anti-sense riboprobes by in vitro transcription. […] Expression indicated represents consistent consensus patterns obtained from analysis of at least 15 larvae in all experiments. […]

Another data set relates to Xenopus embryos. It is filed as in vivo. The settings on record: treated from fertilization to stage 7; organs scored at stage 45.
In a further data set the test system is axons of the tail. As to the kind of experiment: Axonal patterning in regenerating tails (acetylated α-tubulin immunohistochemistry). Also noted: species or system Xenopus laevis. The settings on record: in vivo. From the text:
Finally, to characterize downstream morphogenetic consequences of V-ATPase abrogation, we traced axonal paths during regeneration using immunohistochemistry with an acetylated α-tubulin antibody. In normally regenerating tails, axons appear increased in number (relative to the uncut portion of tail) and they extend into the bud in bundles parallel to the main anterior-posterior axis of the tail (FIG. 14H; green arrows indicate normal axon patterning, while black arrows indicate abnormal axon number and/or location). […] Moreover, in normal refractory tails, there is no apparent increase in the number of axons, and those that are present terminate well anterior of the tail tip (FIG. 14K). […]
Axon and muscle marker detection was performed using fluorescent secondary antibodies. […] Fluorescence images were collected on a Leica TCS SPZ confocal imaging system; λex=543. […] Background autofluorescence was removed by segmentation of the original fluorescence images. The brightest pixels could readily be selected such that the selection best represented the pattern of axons. […]

The next data set relates to activated caspase-3. Kind of data set: Activated caspase-3 localization (apoptosis) in regenerating tails. The settings on record: V-ATPase-inhibited larvae. It is filed as in vivo, Xenopus laevis. The method, then: Further experiments were done in the Xenopus system based on the results of the pharmacological screen (see Example 6). […] The V-ATPase (Nishi, 2002, Nature Reviews Molecular Cell Biology 3: 94-103) generates strong pH and voltage gradients at the expense of ATP, when expressed in vesicular or cell plasma membranes.
Xenopus larvae were fixed overnight in MEMFA, heated for 2 hrs at 65° C. in 50% formamide (to inactivate endogenous alkaline phosphatases; this procedure was not done when using fluorescent secondary antibodies), permeabilized in PBTr+0.1% Triton X100 for 30 min, and processed for immunohistochemistry using alkaline phosphatase secondary antibody (Levin, 2004, Journal of Biochemical and Biophysical Methods 58: 85-96) until signal was optimal and background minimal (usually 12 hrs). […] Anti-KCNK1 (a generous gift of Dr. S. A. Goldstein and D. Bockenhauer) was used at 1:500. The 12-101 muscle marker (Gurdon et al., 1985, Cell 41: 913-22; Kintner and Brockes, 1984, Nature 308: 67-9) was used at 1:1 dilution; this monoclonal antibody developed by Jeremy P. Brockes was obtained from the Developmental Studies Hybridoma Bank developed under the auspices of the NICHD and maintained by The University of Iowa, Department of Biological Sciences, Iowa City, Iowa 52242.

The test system of data set [1] is Xenopus tail regeneration.
For data set [2], the system named is Vmem of Xenopus blastomeres. As to the kind of experiment: Membrane voltage imaging of blastomeres with DiBAC4(3). The class given is in vivo, Xenopus laevis. The settings on record: control vs treated embryos. An excerpt:
Embryos marked with Alexa 647 dextran in the right ventral cell (RV) at the four cell stage (to allow orientation with respect to both axes) were monitored using DiBAC4(3) at the 4, 8, 16, and 32 cell stages. At 16 cells, we observed hyperpolarization of the RV quadrant, relative to the LV quadrant. DiBAC4(3) intensity on the left was greater than on the right. This pattern and its embryological timing are consistent with the self-referencing probe data, and with the hypothesis that higher net H^+ efflux from the right side results in a difference in membrane potential across the ventral midline.
We confirmed this in Xenopus blastomeres by imaging Vmem in vivo in control and concanamycin-treated embryos. Predicting that the membrane would depolarize if H^+-V-ATPase-based proton efflux was inhibited, we monitored Vmem using the voltage-reporting dye DiBAC4(3).
Bis-(1,3-[…])-trimethine oxanol (DiBAC4(3), Molecular Probes, Eugene, Oreg.) is a membrane-permeant, fluorescent molecule that accumulates inside a cell in proportion to the membrane voltage. Because it is anionic, the more depolarized a cell, the greater the accumulation of DiBAC4(3) and the greater the intensity of intracellular, relative to extracellular, fluorescence. […]. The dye was excited with 488 nm light from an argon laser and a 20 nm band of emission wavelengths centered at 515 was collected.

For `C/C=C/[C@H]1O[C@@](O)([C@@H](C)[C@H](O)[C@H](C)[C@H]2OC(=O)/C(OC)=C/C(C)=C/[C@@H](C)[C@@H](O)[C@@H](CC)[C@@H](O)[C@H](C)C/C(C)=C/C=C/[C@@H]2OC)C[C@@H](O)[C@@H]1C` [concanamycin], in the data set with KCNK1, the “KCNK1 expression in the regeneration bud” value is “absent”. Also, the “heterotaxia, % of the embryos” value with Xenopus embryos is 35%. The “axon patterning in V-ATPase-inhibited tails” value with axons of the tail was “axon patterning is abnormal”. The “degree of apoptosis vs control” value with activated caspase-3 was “no significant difference”. The general toxicity result in data set [1] (150 nM) is “absence of general toxicity”. Besides, in data set [1] (150 nM, larvae amputated at stage 41), the “effect on tail regeneration” value is listed as “strong inhibition of regeneration”. Besides, in data set [1] (compound in medium beginning immediately after tail amputation (stage 40-41)), the “effect on rate or extent of tail regeneration” value is listed as “absence of regeneration”. In addition, the “Regeneration Index Treated/Control” value in data set [1] (tail regeneration in the compound versus control) is 23%. Moreover, the “Regeneration Index Treated” value in data set [1] (tail regeneration in the compound, RI computed for each dish of embryos) came out at 49. Moreover, the “effect on Vmem” value in data set [2] is “depolarizes Vmem”.
